Measured values published in PubChem BioAssay (NCI).
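Grown in 96-well plates, cells were treated for 48 hours with each compound at five concentrations. Insufficient inhibition: endpoint recorded as highest concentration tested. The concentration for full growth arrest is given as TGI.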 Where a SMILES comes first, the peptide text is derived from it. [ ]: non-standard residue; d: D form. The star is where a group is joined. Bn2Val = CC(C)[C@@H](C(=O)*)N(Cc1ccccc1)Cc1ccccc1; NH(3,4-diMeO-benzyl) = COc1ccc(CN*)cc1OC; NMeV = CN[C@H](C(=O)O)C(C)C

Tests used:
Assay in all cases: NCI tumour cell line growth inhibition, 48 h
A498 renal = system: A498 renal
SK-MEL-5 melanoma = system: SK-MEL-5 melanoma
LOX IMVI melanoma = system: LOX IMVI melanoma
NCI-H23 lung = system: NCI-H23 lung
KM12 colon = system: KM12 colon
A549 NSCLC = system: A549 NSCLC
T-47D breast = system: T-47D breast
UACC-257 melanoma = system: UACC-257 melanoma
RPMI-8226 leukemia = system: RPMI-8226 leukemia
MOLT-4 leukemia = system: MOLT-4 leukemia
SF-295 CNS = system: SF-295 CNS
NCI-H460 lung = system: NCI-H460 lung
PC-3 prostate = system: PC-3 prostate
K-562 leukemia = system: K-562 leukemia
HOP-62 NSCLC = system: HOP-62 NSCLC
SF-268 CNS = system: SF-268 CNS
COLO 205 colon = system: COLO 205 colon
SK-MEL-2 melanoma = system: SK-MEL-2 melanoma
SR leukemia = system: SR leukemia
CAKI-1 renal = system: CAKI-1 renal
SNB-75 CNS = system: SNB-75 CNS
U251 CNS = system: U251 CNS
HL-60(TB) leukemia = system: HL-60(TB) leukemia
OVCAR-4 ovarian = system: OVCAR-4 ovarian
UACC-62 melanoma = system: UACC-62 melanoma
IGROV1 ovarian = system: IGROV1 ovarian
OVCAR-5 ovarian = system: OVCAR-5 ovarian
HCT-116 colon = system: HCT-116 colon
HCC-2998 colon = system: HCC-2998 colon
TK-10 renal = system: TK-10 renal
SNB-19 CNS = system: SNB-19 CNS
HCT-15 colon = system: HCT-15 colon
786-0 renal = system: 786-0 renal
SK-MEL-28 melanoma = system: SK-MEL-28 melanoma
NCI/ADR-RES ovarian = system: NCI/ADR-RES ovarian
SK-OV-3 ovarian = system: SK-OV-3 ovarian
NCI-H226 lung = system: NCI-H226 lung
HT29 colon = system: HT29 colon
ACHN renal = system: ACHN renal
SW-620 colon = system: SW-620 colon
MDA-N = system: MDA-N
HOP-92 NSCLC = system: HOP-92 NSCLC
UO-31 renal = system: UO-31 renal
RXF 393 renal = system: RXF 393 renal
HS 578T breast = system: HS 578T breast
EKVX NSCLC = system: EKVX NSCLC
DU-145 prostate = system: DU-145 prostate
CCRF-CEM leukemia = system: CCRF-CEM leukemia
MDA-MB-435 = system: MDA-MB-435
SN12C renal = system: SN12C renal
OVCAR-8 ovarian = system: OVCAR-8 ovarian
NCI-H522 lung = system: NCI-H522 lung
MALME-3M melanoma = system: MALME-3M melanoma
SF-539 CNS = system: SF-539 CNS
OVCAR-3 ovarian = system: OVCAR-3 ovarian
M14 melanoma = system: M14 melanoma
MDA-MB-231 breast = system: MDA-MB-231 breast
BT-549 breast = system: BT-549 breast

SMILES: O=C(Nc1ccc(Cl)cc1)NS(=O)(=O)c1c(-c2ccccc2)oc2ccccc2c1=O
- TGI (A498 renal): > 100 µM
- TGI (SK-MEL-5 melanoma): > 100 µM
- TGI (LOX IMVI melanoma): > 100 µM
- TGI (NCI-H23 lung): > 100 µM
- TGI (KM12 colon): > 100 µM
- TGI (A549 NSCLC): > 100 µM
- TGI (T-47D breast): > 100 µM
- TGI (UACC-257 melanoma): > 100 µM
- TGI (RPMI-8226 leukemia): > 100 µM
- TGI (MOLT-4 leukemia): > 100 µM
- TGI (SF-295 CNS): > 100 µM
- TGI (NCI-H460 lung): > 100 µM
- TGI (PC-3 prostate): > 100 µM
- TGI (K-562 leukemia): > 100 µM
- TGI (HOP-62 NSCLC): > 100 µM
- TGI (SF-268 CNS): > 100 µM
- TGI (COLO 205 colon): > 100 µM
- TGI (SK-MEL-2 melanoma): > 100 µM
- TGI (SR leukemia): > 100 µM
- TGI (CAKI-1 renal): > 100 µM
- TGI (SNB-75 CNS): > 100 µM
- TGI (U251 CNS): > 100 µM
- TGI (HL-60(TB) leukemia): > 100 µM
- TGI (OVCAR-4 ovarian): > 100 µM
- TGI (UACC-62 melanoma): 13.6 µM
- TGI (IGROV1 ovarian): > 100 µM
- TGI (OVCAR-5 ovarian): > 100 µM
- TGI (HCT-116 colon): > 100 µM
- TGI (HCC-2998 colon): > 100 µM
- TGI (TK-10 renal): 86.9 µM
- TGI (SNB-19 CNS): > 100 µM
- TGI (HCT-15 colon): > 100 µM
- TGI (786-0 renal): > 100 µM
- TGI (SK-MEL-28 melanoma): > 100 µM
- TGI (NCI/ADR-RES ovarian): > 100 µM
- TGI (SK-OV-3 ovarian): > 100 µM
- TGI (NCI-H226 lung): > 100 µM
- TGI (HT29 colon): > 100 µM
- TGI (ACHN renal): > 100 µM
- TGI (SW-620 colon): > 100 µM
- TGI (MDA-N): > 100 µM
- TGI (HOP-92 NSCLC): > 100 µM
- TGI (UO-31 renal): > 100 µM
- TGI (RXF 393 renal): > 100 µM
- TGI (HS 578T breast): > 100 µM
- TGI (EKVX NSCLC): > 100 µM
- TGI (DU-145 prostate): > 100 µM
- TGI (CCRF-CEM leukemia): > 100 µM
- TGI (MDA-MB-435): > 100 µM
- TGI (SN12C renal): > 100 µM
- TGI (OVCAR-8 ovarian): > 100 µM
- TGI (NCI-H522 lung): 31.2 µM
- TGI (MALME-3M melanoma): > 100 µM
- TGI (SF-539 CNS): > 100 µM

SMILES: CCC1=[N+]([O-])C(C)(C)NC1(C)C
- TGI (SK-MEL-5 melanoma): > 10 µM
- TGI (NCI-H23 lung): > 10 µM
- TGI (KM12 colon): > 10 µM
- TGI (A549 NSCLC): > 10 µM
- TGI (OVCAR-3 ovarian): > 10 µM
- TGI (SF-295 CNS): > 10 µM
- TGI (PC-3 prostate): > 10 µM
- TGI (M14 melanoma): > 10 µM
- TGI (SF-268 CNS): > 10 µM
- TGI (COLO 205 colon): > 10 µM
- TGI (CAKI-1 renal): > 10 µM
- TGI (SNB-75 CNS): > 10 µM
- TGI (U251 CNS): > 10 µM
- TGI (OVCAR-4 ovarian): > 10 µM
- TGI (IGROV1 ovarian): > 10 µM
- TGI (OVCAR-5 ovarian): > 10 µM
- TGI (HCT-116 colon): > 10 µM
- TGI (TK-10 renal): > 10 µM
- TGI (SNB-19 CNS): > 10 µM
- TGI (HCT-15 colon): > 10 µM
- TGI (SK-MEL-28 melanoma): > 10 µM
- TGI (NCI/ADR-RES ovarian): > 10 µM
- TGI (NCI-H226 lung): > 10 µM
- TGI (HT29 colon): > 10 µM
- TGI (ACHN renal): > 10 µM
- TGI (SW-620 colon): > 10 µM
- TGI (MDA-N): > 10 µM
- TGI (HOP-92 NSCLC): > 10 µM
- TGI (RXF 393 renal): > 10 µM
- TGI (EKVX NSCLC): > 10 µM
- TGI (DU-145 prostate): > 10 µM
- TGI (MDA-MB-435): > 10 µM
- TGI (SN12C renal): > 10 µM
- TGI (OVCAR-8 ovarian): > 10 µM
- TGI (MDA-MB-231 breast): > 10 µM
- TGI (SF-539 CNS): > 10 µM

SMILES: COc1ccc(CNC(=O)[C@@H]2CCCN2C(=O)[C@@H]2CCCN2C(=O)[C@H](C(C)C)N(C)C(=O)[C@@H](NC(=O)[C@H](C(C)C)N(Cc2ccccc2)Cc2ccccc2)C(C)C)cc1OC (Bn2Val-V[NMeV]PP-{NH(3,4-diMeO-benzyl)})
- TGI (A498 renal): 31.6 µM
- TGI (SK-MEL-5 melanoma): 20.4 µM
- TGI (BT-549 breast): 34.5 µM
- TGI (LOX IMVI melanoma): 16.4 µM
- TGI (NCI-H23 lung): 38.6 µM
- TGI (KM12 colon): 51.5 µM
- TGI (A549 NSCLC): 38.4 µM
- TGI (T-47D breast): 48.3 µM
- TGI (UACC-257 melanoma): 42.9 µM
- TGI (MOLT-4 leukemia): 72.2 µM
- TGI (OVCAR-3 ovarian): 27.6 µM
- TGI (SF-295 CNS): 29.9 µM
- TGI (NCI-H460 lung): > 60.5 µM
- TGI (PC-3 prostate): 30.8 µM
- TGI (K-562 leukemia): > 100 µM
- TGI (HOP-62 NSCLC): 32.3 µM
- TGI (M14 melanoma): 29.4 µM
- TGI (SF-268 CNS): > 48.1 µM
- TGI (COLO 205 colon): 38.7 µM
- TGI (SK-MEL-2 melanoma): 34.5 µM
- TGI (SR leukemia): > 100 µM
- TGI (CAKI-1 renal): 38.1 µM
- TGI (SNB-75 CNS): 25.7 µM
- TGI (U251 CNS): 45.7 µM
- TGI (HL-60(TB) leukemia): 6.17 µM
- TGI (OVCAR-4 ovarian): 42.6 µM
- TGI (UACC-62 melanoma): 29.7 µM
- TGI (IGROV1 ovarian): 13.4 µM
- TGI (OVCAR-5 ovarian): 34 µM
- TGI (HCT-116 colon): 29.5 µM
- TGI (TK-10 renal): 29.5 µM
- TGI (SNB-19 CNS): 30.7 µM
- TGI (HCT-15 colon): 31.4 µM
- TGI (786-0 renal): 26.5 µM
- TGI (SK-MEL-28 melanoma): 38.5 µM
- TGI (NCI/ADR-RES ovarian): 48.2 µM
- TGI (SK-OV-3 ovarian): 31.4 µM
- TGI (NCI-H226 lung): 33.4 µM
- TGI (HT29 colon): 20.7 µM
- TGI (ACHN renal): 28 µM
- TGI (SW-620 colon): > 60.8 µM
- TGI (MDA-N): 30.5 µM
- TGI (HOP-92 NSCLC): 28.9 µM
- TGI (RXF 393 renal): 26.7 µM
- TGI (HS 578T breast): > 100 µM
- TGI (EKVX NSCLC): 26.7 µM
- TGI (DU-145 prostate): 30.1 µM
- TGI (CCRF-CEM leukemia): > 100 µM
- TGI (MDA-MB-435): 39 µM
- TGI (SN12C renal): 29.9 µM
- TGI (OVCAR-8 ovarian): 30.3 µM
- TGI (NCI-H522 lung): 20.6 µM
- TGI (MALME-3M melanoma): 46.2 µM
- TGI (MDA-MB-231 breast): 42.3 µM
- TGI (SF-539 CNS): 34 µM
